Data taken from PubChem BioAssay AID210 (DTP/NCI, 2004).
Values joined by “and” are separate entries in the source; they are usually repeats but may differ in a detail not shown here. Identical values can stand only once. Toxic doses and inconclusive results are not listed.

Tested on: CD2F1 mice, ip Colon 26 adenocarcinoma, median survival T/C
Assay: NCI In Vivo Anticancer Drug Screen. Data for tumor model Colon 26 Adenocarcinoma (intraperitoneal) in CD2F1 (CDF1) mice
Conditions: endpoint: median survival time, higher = longer survival
Protocol: The antitumor activity of compounds was measured in mice bearing transplantable tumors. Survival or tumor size were measured and the results are expressed as the measurement made in the treated group (T) divided by the measurement made in the vehicle treated control group (C). The tumor model used in this assay is Colon 26 Adenocarcinoma (intraperitoneal) in CD2F1 (CDF1) mice

[1] = dose: 12.5 mg/kg/injection, schedule: Q04DX003 (ip), vehicle: Klucel (hydroxypropylcellulose) (HPC)
[2] = dose: 25.0 mg/kg/injection, schedule: Q04DX003 (ip), vehicle: Klucel (hydroxypropylcellulose) (HPC)

Structure (SMILES): COc1cccc2c1C(=O)c1c(O)c3c(c(O)c1C2=O)C[C@@](O)(C(=O)COC(=O)c1cccnc1)C[C@@H]3OC1CC(N)C(O)C(C)O1 (stereo partly drawn)
- T/C (dose: 5.5 mg/kg/injection, schedule: Q07DX003 (iv), vehicle: other): 113 % of control
- T/C (dose: 8.5 mg/kg/injection, schedule: Q07DX003 (iv), vehicle: other): 108 % of control
- T/C (dose: 13.1 mg/kg/injection, schedule: Q07DX003 (iv), vehicle: other): 114 % of control
- T/C (dose: 17.0 mg/kg/injection, schedule: Q07DX002 (iv), vehicle: alkali diluted with saline): 99 % of control
- T/C (dose: 20.3 mg/kg/injection, schedule: Q07DX003 (iv), vehicle: other): 115 % of control
- T/C (dose: 26.0 mg/kg/injection, schedule: Q07DX002 (iv), vehicle: alkali diluted with saline): 94 % of control

Structure (SMILES): CCNCCNc1ccc(NCCNCC)c2c1C(=O)c1ccccc1C2=O
- T/C (dose: 2.0 mg/kg/injection, schedule: Q01DX009 (ip), vehicle: acid diluted with saline): 179 % of control
- T/C (dose: 4.0 mg/kg/injection, schedule: Q01DX009 (ip), vehicle: acid diluted with saline): 189 % of control
- T/C (dose: 8.0 mg/kg/injection, schedule: Q01DX009 (ip), vehicle: acid diluted with saline): 163 % of control and 166 % of control
- T/C (dose: 16.0 mg/kg/injection, schedule: Q01DX009 (ip), vehicle: acid diluted with saline): 169 % of control and 177 % of control

Structure (SMILES): CO[C@H](C(=O)[C@@H](O)[C@@H](C)O)[C@@H]1Cc2cc3cc(OC4CC(OC5CC(O)C(O)C(C)O5)C(O)C(C)O4)c(C)c(O)c3c(O)c2C(=O)[C@H]1OC1CC(OC2CC(OC3CC(C)(O)C(O)C(C)O3)C(O)C(C)O2)C(O)C(C)O1 (stereo partly drawn)
- T/C (dose: 0.25 mg/kg/injection, schedule: Q04DX003 (ip), vehicle: saline): 96 % of control
- T/C (dose: 0.5 mg/kg/injection, schedule: Q04DX003 (ip), vehicle: saline): 98 % of control
- T/C (dose: 1.0 mg/kg/injection, schedule: Q04DX003 (ip), vehicle: saline): 98 % of control
- T/C (dose: 2.0 mg/kg/injection, schedule: Q04DX003 (ip), vehicle: saline): 100 % of control

Structure (SMILES): CN(C)/N=N/c1nc[nH]c1C(N)=O
- T/C (dose: 25.0 mg/kg/injection, schedule: Q04DX003 (ip), vehicle: carboxymethylcellulose (CMC)): 112 % of control
- T/C (dose: 50.0 mg/kg/injection, schedule: Q04DX003 (ip), vehicle: carboxymethylcellulose (CMC)): 120 % of control
- T/C (dose: 100.0 mg/kg/injection, schedule: Q04DX003 (ip), vehicle: carboxymethylcellulose (CMC)): 122 % of control
- T/C (dose: 240.0 mg/kg/injection, schedule: Q01DX001 (ip), vehicle: Klucel (hydroxypropylcellulose) (HPC)): 95 % of control
- T/C (dose: 400.0 mg/kg/injection, schedule: Q01DX001 (ip), vehicle: Klucel (hydroxypropylcellulose) (HPC)): 92 % of control
- T/C (dose: 400.0 mg/kg/injection, schedule: Q04DX003 (ip), vehicle: carboxymethylcellulose (CMC)): 116 % of control
- T/C (dose: 600.0 mg/kg/injection, schedule: Q01DX001 (ip), vehicle: Klucel (hydroxypropylcellulose) (HPC)): 61 % of control

Structure (SMILES): COc1cc([C@@H]2c3cc4c(cc3[C@@H](OC3OC5COC(C)OC5C(O)C3O)[C@H]3COC(=O)[C@H]23)OCO4)cc(OC)c1O (stereo partly drawn)
- T/C (dose: 25.0 mg/kg/injection, schedule: Q03DX002 (ip), vehicle: other): 103 % of control
- T/C (dose: 32.0 mg/kg/injection, schedule: Q04DX003 (ip), vehicle: saline): 151 % of control
- T/C (dose: 40.0 mg/kg/injection, schedule: Q03DX002 (ip), vehicle: other): 120 % of control
- T/C (dose: 60.0 mg/kg/injection, schedule: Q03DX002 (ip), vehicle: other): 107 % of control
- T/C (dose: 64.0 mg/kg/injection, schedule: Q04DX003 (ip), vehicle: saline): 193 % of control

Structure (SMILES): CC(=O)C1(O)Cc2c(O)c3c(c(O)c2C(OC2CC(N)C(O)C(C)O2)C1)C(=O)c1ccccc1C3=O (stereo not drawn)
- T/C (dose: 1.4 mg/kg/injection, schedule: Q07DX002 (iv), vehicle: saline): 107 % of control
- T/C (dose: 2.3 mg/kg/injection, schedule: Q07DX002 (iv), vehicle: saline): 120 % of control
- T/C (dose: 324.0 micrograms/kg/injection, schedule: Q04DX003 (ip), vehicle: water): 157 % of control
- T/C (dose: 900.0 micrograms/kg/injection, schedule: Q04DX003 (ip), vehicle: water): 92 % of control

Structure (SMILES): O=Cc1ccc(C(Cl)(Cl)Cl)cc1
- T/C (dose: 12.5 mg/kg/injection, schedule: Q04DX003 (ip), vehicle: saline with Tween-80): 103 % of control and 107 % of control
- T/C (dose: 25.0 mg/kg/injection, schedule: Q04DX003 (ip), vehicle: saline with Tween-80): 106 % of control and 109 % of control
- T/C (dose: 50.0 mg/kg/injection, schedule: Q04DX003 (ip), vehicle: saline with Tween-80): 114 % of control and 98 % of control
- T/C (dose: 100.0 mg/kg/injection, schedule: Q04DX003 (ip), vehicle: saline with Tween-80): 96 % of control
- T/C (dose: 200.0 mg/kg/injection, schedule: Q04DX003 (ip), vehicle: saline with Tween-80): 98 % of control
- T/C (dose: 400.0 mg/kg/injection, schedule: Q04DX003 (ip), vehicle: saline with Tween-80): 103 % of control

Structure (SMILES): O=C(CCCN1CCC(O)(c2cccc(C(F)(F)F)c2)CC1)c1ccc(F)cc1
- T/C (dose: 3.12 mg/kg/injection, schedule: Q04DX003 (ip), vehicle: Klucel (hydroxypropylcellulose) (HPC)): 94 % of control
- T/C (dose: 6.25 mg/kg/injection, schedule: Q04DX003 (ip), vehicle: Klucel (hydroxypropylcellulose) (HPC)): 95 % of control
- T/C [1]: 99 % of control
- T/C [2]: 97 % of control
- T/C (dose: 50.0 mg/kg/injection, schedule: Q04DX003 (ip), vehicle: Klucel (hydroxypropylcellulose) (HPC)): 105 % of control

Structure (SMILES): O=C(O)c1c2c(nc3ccccc13)Cc1ccccc1-2
- T/C (dose: 12.5 mg/kg/injection, schedule: Q04DX002 (ip), vehicle: water): 97 % of control
- T/C (dose: 25.0 mg/kg/injection, schedule: Q04DX002 (ip), vehicle: water): 113 % of control
- T/C (dose: 100.0 mg/kg/injection, schedule: Q04DX002 (ip), vehicle: water): 105 % of control

Structure (SMILES): Cc1ccc(C(=O)[O][Hg][CH2]C2COC([CH2][Hg][O]C(=O)c3ccc(C)cc3)CO2)cc1 (stereo not drawn)
- T/C [1]: 104 % of control
- T/C [2]: 92 % of control

Structure (SMILES): CCCCCCCCCCCCCCCCS(=O)CC(O)COC(=O)c1ccc(C(=O)OCC(O)CS(=O)CCCCCCCCCCCCCCCC)cc1 (stereo not drawn)
- T/C (dose: 12.5 mg/kg/injection, schedule: Q04DX002 (ip), vehicle: saline + alcohol): 109 % of control
- T/C (dose: 25.0 mg/kg/injection, schedule: Q04DX002 (ip), vehicle: saline + alcohol): 100 % of control
- T/C (dose: 50.0 mg/kg/injection, schedule: Q04DX002 (ip), vehicle: saline + alcohol): 91 % of control
- T/C (dose: 100.0 mg/kg/injection, schedule: Q04DX002 (ip), vehicle: saline + alcohol): 91 % of control

Structure (SMILES): CC[C@]1(O)C[C@H]2CN(CCc3c([nH]c4ccccc34)[C@@](C(=O)OC)(c3cc4c(cc3OC)N(C=O)[C@H]3[C@@](O)(C(=O)OC)[C@H](OC(C)=O)[C@]5(CC)C=CCN6CC[C@]43[C@@H]65)C2)C1
- T/C (dose: 0.95 mg/kg/injection, schedule: Q07DX003 (ip), vehicle: saline): 112 % of control and 115 % of control
- T/C (dose: 1.4 mg/kg/injection, schedule: Q07DX003 (ip), vehicle: saline): 120 % of control and 123 % of control
- T/C (dose: 2.1 mg/kg/injection, schedule: Q07DX003 (ip), vehicle: saline): 105 % of control
- T/C (dose: 3.0 mg/kg/injection, schedule: Q07DX003 (ip), vehicle: saline): 99 % of control

Structure (SMILES): CC[C@](O)(C(=O)O)c1cc2n(c(=O)c1CO)Cc1cc3ccccc3nc1-2
- T/C (dose: 6.25 mg/kg/injection, schedule: Q04DX003 (ip), vehicle: saline): 114 % of control
- T/C (dose: 12.5 mg/kg/injection, schedule: Q04DX003 (ip), vehicle: saline): 111 % of control
- T/C (dose: 25.0 mg/kg/injection, schedule: Q04DX003 (ip), vehicle: saline): 121 % of control

Structure (SMILES): Nc1ncnc2c1ncn2C1OC(CO)CC1O (stereo not drawn)
- T/C (dose: 37.5 mg/kg/injection, schedule: Q04DX002 (ip), vehicle: Klucel (hydroxypropylcellulose) (HPC)): 101 % of control
- T/C (dose: 75.0 mg/kg/injection, schedule: Q04DX002 (ip), vehicle: Klucel (hydroxypropylcellulose) (HPC)): 110 % of control
- T/C (dose: 150.0 mg/kg/injection, schedule: Q04DX002 (ip), vehicle: Klucel (hydroxypropylcellulose) (HPC)): 93 % of control

Structure (SMILES): CCC1(O)CC(OC2CC(N(C)C)C(OC3CC(O)C(OC4CCC(=O)C(C)O4)C(C)O3)C(C)O2)c2c(cc3c(c2O)C(=O)c2c(O)ccc(O)c2C3=O)C1C(=O)OC (stereo not drawn)
- T/C (dose: 0.38 mg/kg/injection, schedule: Q04DX003 (ip), vehicle: saline with Tween-80): 103 % of control
- T/C (dose: 0.75 mg/kg/injection, schedule: Q04DX003 (ip), vehicle: saline with Tween-80): 117 % of control
- T/C (dose: 1.5 mg/kg/injection, schedule: Q04DX003 (ip), vehicle: saline with Tween-80): 123 % of control
- T/C (dose: 3.0 mg/kg/injection, schedule: Q04DX003 (ip), vehicle: saline with Tween-80): 108 % of control

Structure (SMILES): Nc1ncnc2c1ccn2C1OC(CO)C(O)C1O (stereo not drawn)
- T/C (dose: 0.5 mg/kg/injection, schedule: Q04DX003 (ip), vehicle: Klucel (hydroxypropylcellulose) (HPC)): 98 % of control
- T/C (dose: 1.0 mg/kg/injection, schedule: Q04DX003 (ip), vehicle: Klucel (hydroxypropylcellulose) (HPC)): 119 % of control
- T/C (dose: 2.0 mg/kg/injection, schedule: Q04DX003 (ip), vehicle: Klucel (hydroxypropylcellulose) (HPC)): 118 % of control
- T/C (dose: 4.0 mg/kg/injection, schedule: Q04DX003 (ip), vehicle: Klucel (hydroxypropylcellulose) (HPC)): 115 % of control
